Test [1] concerns chondrocytes. The experiment in a line: Proteoglycan synthesis, [35S] labeling. The note with it: 72 hours after addition; 0.025 mM antimycin A or non-lethal dose of oligomycin. It counts as cell-based, human. On the procedure: Proteoglycan synthesis was measured by [^35S]-labeling and uptake of the isotope, as well as by biosynthetic incorporation of the isotope (van Osch et al., Matrix Biol. 17:413–424, 1998) into proteoglycans extracted and subsequently purified by column chromatography on Sephadex® G-25 (Pharmacia, Piscataway, N.J.) (FIG. 3). Chondrocytes or TC28 cells (3×10^6) were plated in 30 ml of medium in a 10-cm diameter tissue culture dish and the medium was made 0.025 mM in antimycin (or 0.02 μg/ml oligomycin) every 24 hours for 72 hours. After 48 hours of culture, 20 μCi/ml of [^35S]sodium sulfate was added to each plate in serum-free medium. After a total of 72 hours, the medium was collected and the cells were washed once with phosphate buffered saline (PBS) and then scraped into 0.5 M NaOH and mixed for 48 hours at 4° C. The medium and the cell extract were eluted from Sephadex® (Pharmacia, Piscataway, N.J.) G-25M PD-10 columns with 4M guanidine-HCl. The eluted portion was added to scintillation fluid and counted (n=9 replicates in FIG. 3; *=P<0.05 by Student's t-test).

Test [2] relates to chondrocytes. The test can be described thus: Collagen synthesis, [3H]-proline labeling, collagenase-sensitive protein. Conditions: 72 hours after addition; 0.025 mM antimycin A or non-lethal dose of oligomycin. It counts as cell-based, human. Here is the method: Collagen production was measured by tritiated proline ([^3H]-proline) biosynthetic protein labeling and measuring of collagenase-sensitive protein production (FIG. 2). Articular chondrocytres or TC28 cells (5×10^5 cells) were plated in 5 ml medium made 0.025 mM in antimycin A (or 0.02 μg/ml oligomycin, see next Example) by addition of the indicated agent every 24 hours. After the mitochondrial inhibitors were added, the cells were cultured for a further 48 hours. Medium was then removed and replaced with serum-free medium containing 5 μl/ml of [^3H]-proline, 50 μg/ml ascorbate and 100 μg/ml β-aminoproprionitrile, and incubation continued for an additional 8 hours.
Medium was then collected and precipitated with 15% trichloroacetic acid (TCA). Cells were extracted in 1 M NaCl, 1 mM N-ethylmaleimide, 0.2 mM phenylmethylsulfonyl fluoride, 0.75 mM EDTA and then precipitated with 15% TCA. The precipitates were washed 3 times with 5% TCA and once with 5% TCA containing 0.5% tannic acid. The pellet was dissolved and resuspended in 0.05 M Tris-HCl, pH 7.6, 5 mM CaCl2, 2.5 mM N-ethylmaleimide. Collagenase-sensitive protein per μg total protein was determined by incubation for 2 hours with 80 units/ml of collagenase, followed by addition of 10% TCA/0.5% tannic acid, and addition of the supernatant to scintillation fluid for standard scintillation counting in the tritium channel.

In the next test the test system is TC28 cells. The experiment in a line: Intracellular ATP, luciferase assay. Conditions: 10 ng/ml TGFβ, 0.025 mM antimycin A, 0.02 μg/ml oligomycin; mean ± SD. It counts as cell-based. On the procedure: (§1) Levels of total cellular ATP were measured by a modification of luciferase-based assays known in the art (Lin et al., Anal. Biochem. 24:531–540, 1968); related assays and modifications may alternatively be used (see, e.g., Turman et al., In Vitro Cell. Dev. Biol. Anim. 32:1–4, 1996, for an assay format that uses a fluorescent plate reader). In brief, 2×10^6 cells were washed and pelleted in 10 ml phosphate-buffered saline (PBS). The cell pellets were snap-frozen in a dry ice/ethanol bath, after which […] of 0.2 M HCl was added, followed by 0.3 ml of 2 mM glycine (pH 9.0). Samples were heated at 100° C. for five minutes, then placed on ice. A standard curve was developed using 0 to 500 pmol of purified ATP (disodium salt). One hundred (100) μl of the cell extract, or purified ATP standard, was added to an equal volume of the ATP assay mixture (containing MgSO4, DTT, EDTA, luciferase and luciferin, all from the Sigma Bioluminescence Assay Kit and all diluted 1:25). Following a 5 second incubation and 15 second integration, samples were read on a TD-20/20 Luminometer (Turner Designs, Sunnyvale, Calif.).

In test [3] the test system is articular chondrocytes and TC28 cells. The experiment in a line: Intracellular ATP, statements covering both cell preparations. It counts as cell-based, human. Conditions: for depletion of intracellular ATP levels: 0.025 mM antimycin A or 0.02 μM oligomycin, administered every 24 hours for 72 hours; for intracellular ATP levels (qualitative): SIN-1 500 μM, NOC-12 250 μM, antimycin A and oligomycin concentration not stated; for effect on TGFβ-induced increase of intracellular ATP: antimycin A 0.025 mM or oligomycin 0.02 μM additionally present. Here is the method:
as §1
In FIG. 1A, articular chondrocytes or TC28 cells (5×10^5) in 5 ml were studied in triplicate in the presence of antimycin (or oligomycin, see next Example) at the indicated concentrations, administered every 24 hours for a total of 72 hours, and total intracellular ATP concentrations were determined as described above. Viability determinations are shown in FIG. 1B, where 2×10^4 chondrocytes or TC28 cells in 0.2 ml were cultured in triplicate in the presence of antimycin (or oligomycin) at the indicated concentrations, administered every 24 hours for a total of 72 hours, and cell viability was determined by trypan blue dye exclusion (>200 cells counted for each replicate).

For test [4] the test system is unchanged. The test can be described thus: Level of glycolysis. The note with it: 0.025 mM antimycin A or 0.02 μM oligomycin. It counts as cell-based, human.
The test system is the same in test [5]. The experiment in a line: Oxygen consumption with a Clark electrode (respiratory rate). It counts as cell-based, human. Conditions: SIN-1 500 μM; NOC-12 250 μM; antimycin A and oligomycin concentration not stated.
The subject of the next test is alkaline phosphatase. The test can be described thus: PPi-degrading alkaline phosphatase activity (control study). It counts as cell-based. Conditions: not shown.

For `CC[C@H]1/C=C/C=C/C[C@@H](C)[C@H](O)[C@@](C)(O)C(=O)[C@@H](C)[C@H](O)[C@@H](C)C(=O)[C@@H](C)[C@H](O)[C@@H](C)/C=C/C(=O)O[C@@H]2[C@H](C)[C@H](CC1)O[C@]1(CC[C@H](C)[C@H](C[C@@H](C)O)O1)[C@H]2C` [oligomycin], the “depression of proteoglycan synthesis” value in the test on chondrocytes [1] is “more than 50%”. The “depression of collagen synthesis” value with chondrocytes [2] is “more than 50%”. Moreover, the “ATP (pmoles/μg DNA):TC28 cells” value with TC28 cells came out at 198.6 ± 3.7 pmoles/μg DNA. Also, in test [3], the “depletion of intracellular ATP levels” value is recorded as 50–80%, the “intracellular ATP levels (qualitative)” value is on record as “depressed intracellular ATP levels” and the “effect on TGFβ-induced increase of intracellular ATP” value is listed as “this effect was blocked”. Further, the “effect on level of glycolysis” value in test [4] is reported as “without altering the constitutively high level of glycolysis”. Moreover, the respiratory rates entry in test [5] is given as “inhibited respiratory rates”. Besides, in the test on alkaline phosphatase, the “PPi-degrading alkaline phosphatase activity” value is reported as “neither agent altered PPi-degrading alkaline phosphatase activity”.

Consider antimycin A, for which, in the test with chondrocytes [1], the “depression of proteoglycan synthesis” value is listed as “more than 50%”. In addition, the “depression of collagen synthesis” value in the test with chondrocytes [2] is given as “more than 50%”. In the test on TC28 cells, the “ATP (pmoles/μg DNA):TC28 cells” value turned out to be 69.78 ± 4.0 pmoles/μg DNA. Also, in test [3], the “depletion of intracellular ATP levels” value is 50–80%, the “intracellular ATP levels (qualitative)” value is “depressed intracellular ATP levels” and the “effect on TGFβ-induced increase of intracellular ATP” value is on record as “this effect was blocked”. For the same compound, the “effect on level of glycolysis” value in test [4] was “without altering the constitutively high level of glycolysis”. Further, the respiratory rates result in test [5] is “inhibited respiratory rates”. The “PPi-degrading alkaline phosphatase activity” value in the test on alkaline phosphatase is reported as “neither agent altered PPi-degrading alkaline phosphatase activity”.

For the origin of these results see patent US7005274B1, “Methods and compositions for diagnosing and treating arthritic disorders and regulating bone mass” (MIGENIX Corp., priority 1999, dated 2006).
